# In PMC6983109, “Efficient Synthesis of Purine Nucleoside Analogs by a New Trimeric Purine Nucleoside Phosphorylase from Aneurinibacillus migulanus AM007” (Molecules, 2019):
# Experiments:
# [1] = target: T1, AmPNP (Aneurinibacillus migulanus, UniProt A0A3G5E8S8); test: phosphorolysis, HPLC; type: biochemical; conditions: 10 mM sodium phosphate buffer pH 8.0 (phosphate co-substrate), 50 °C, 0.5–5 mM substrate
# T1 construct: full-length ORF 813 bp, 270 residues; N-terminal 6*His tag (pET-28a(+), Nhe I/BamH I), E. coli BL21(DE3), Ni2+ purified; subunit ~29 kDa, native ~87 kDa, trimer
# Excerpt: phosphorolysis, HPLC on AmPNP
# [2] = target: purine nucleoside phosphorylase from Aneurinibacillus migulanus AM007 (Aneurinibacillus migulanus AM007); test: SEC; Superdex 200 Increase 10/300 GL on an AKTA pure system, against standard proteins; 0.01 M phosphate buffer, 0.14 M NaCl, pH 8.0; AmPNP at 2 mg/mL; 0.3 mL/min; native mass about 87 kDa compared with about 29 kDa subunit on SDS-PAGE
Molecule,Km [1],stoichiometry N [2]
Nc1nc2c(ncn2[C@@H]2O[C@H](CO)[C@@H](O)[C@H]2O)c(=O)[nH]1 [Guanosine],1.16 mM,
OC[C@H]1O[C@@H](n2cnc3c(O)ncnc32)[C@H](O)[C@@H]1O [Inosine],5.3 mM,
purine nucleoside phosphorylase from Aneurinibacillus migulanus AM007 (enzyme),,3
Nc1ncnc2c1ncn2[C@@H]1O[C@H](CO)[C@@H](O)[C@H]1O [Adenosine],1.45 mM,
